Where only a bound is given, the exact number is not on record here.

The target of this test is T1, APOL1 (Homo sapiens, UniProt O14791).
T1 sequence (O14791 1-398 S342G/I384M): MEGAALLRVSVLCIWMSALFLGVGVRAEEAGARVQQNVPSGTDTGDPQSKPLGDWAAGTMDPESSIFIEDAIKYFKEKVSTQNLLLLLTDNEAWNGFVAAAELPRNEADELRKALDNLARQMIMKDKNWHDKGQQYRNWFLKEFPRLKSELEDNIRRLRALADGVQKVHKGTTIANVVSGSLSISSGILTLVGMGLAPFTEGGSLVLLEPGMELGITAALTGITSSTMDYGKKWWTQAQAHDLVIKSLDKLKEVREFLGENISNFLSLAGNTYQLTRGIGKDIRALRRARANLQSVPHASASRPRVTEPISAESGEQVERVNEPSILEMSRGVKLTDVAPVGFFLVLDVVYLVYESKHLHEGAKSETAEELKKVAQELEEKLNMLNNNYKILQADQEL
In words: MultiTox-Fluor Multiplex Cytotoxicity Assay in tet-inducible APOL1 T-REx-HEK293 cells. The test is classed as cell-based. The note with it: 50 ng/mL tet, 24 hours, ratio of dead to live cells, read-out: IP50 (i.e., IC50 for cell proliferation). As for the experimental part: The MultiTox-Fluor Multiplex Cytotoxicity Assay is a single-reagent-addition, homogeneous, fluorescence assay that measures the number of live and dead cells simultaneously in culture wells. The assay measures cell viability and cytotoxicity by detecting two distinct protease activities. The live-cell protease activity is restricted to intact viable cells and is measured using a fluorogenic, cell-permeant peptide glycyl-phenylalanylamino fluorocoumarin (GF-AFC) substrate. The substrate enters intact cells, where it is cleaved to generate a fluorescent signal proportional to the number of living cells. […] A second, cell-impermeant, fluorogenic peptide substrate (bis-AAF-R110 Substrate) is used to measure dead-cell protease that has been released from cells that have lost membrane integrity. A ratio of dead to live cells is used to normalize data.
Briefly, the tet-inducible transgenic APOL1 T-REx-HEK293 cell lines were incubated with 50 ng/mL tet to induce APOL1 in the presence of 3-(2-(4-fluorophenyl)-1H-indol-3-yl)-N-((3S,4R)-4-hydroxy-2-oxopyrrolidin-3-yl)propenamide at 10.03, 3.24, 1.13, 0.356, 0.129, 0.042, 0.129, 0.0045, 0.0015, 0.0005 μM in duplicate for 24 hours in a humidified 37° C. incubator. The MultiTox reagent was added to each well and placed back in the incubator for an additional 30 minutes. The plate was read on the EnVision plate reader. A ratio of dead to live cells was used to normalize, and data was imported, analyzed, and fit using Genedata Screener (Basel, Switzerland) software. Data was normalized using percent of control, no tet (100% viability), and 50 ng/mL tet treated (0% viability),and fit using Smart Fit. The reagents, methods, and complete protocol for the MultiTox assay are described below.
Human embryonic kidney (HEK293) cell lines containing a tet-inducible expression system (T-REx™; Invitrogen, Carlsbad, CA) and Adeno-associated virus site 1 pAAVS1-Puro-APOL1 G0 or pAAVS1-Puro-APOL1 G1 or pAAVS1-Puro-APOL1 G2 Clones G0 DC2.13, G1 DC3.25, and G2 DC4.44 were grown in a T-225 flask at ˜90% confluency in cell growth media (DMEM, 10% Tet-free FBS, 2 mM L-glutamine, 100 Units/mL penicillin-streptomycin, 5 μg/mL blasticidin S HCl, 1 μg/mL puromycin dihydrochloride). Cells were washed with DPBS and then trypsinized to dissociate from the flask. Media was used to quench the trypsin, cells were then pelleted at 200 g and resuspended in fresh cell assay media (DMEM, 2% Tet-free FBS, 2 mM L-glutamine, 100 Units/mL penicillin-streptomycin). Cells were counted and diluted to 1.17×10^6 cells/mL. 20 μL of cells (23,400/well) were dispensed in every well of a 384-well Poly-D-Lysine coated plate using the Multidrop dispenser. The plates were then incubated at room temperature for one hour.
Tetracycline is needed to induce APOL1 expression. 1 mg/mL tet stock in water was diluted to 250 ng/mL (5×) in cell assay media. 60 μL of cell assay media (no tet control) was dispensed in columns 1 and 24, and 60 μL of 5×tet in 384-PP-round bottom plate was dispensed in columns 2 to 23 with the Multidrop dispenser.
Assay ready plates from the Global Compound Archive were ordered using template 384_APOL1Cell_DR10n2_50 uM_v3. Compounds were dispensed at 200 nL in DMSO. The final top concentration was 10 μM with a 10 point 3-fold dilution in duplicate in the MultiTox assay.
20 μL was transferred from the 5×tet plate to the ARP and mixed, then 5 μL of 5×tet and the compounds were transferred to the cell plate and mixed using the Bravo. The cell plate was placed in the humidified 37° C. 5% CO2 incubator for 24 hours.
The MultiTox-Fluor Multiplex Cytotoxicity Assay was performed in accordance with the manufacturer's protocol. After cells were incubated with tet and compound for 24 hours, 25 μL of 1×MultiTox reagent was added to each well using the Multidrop dispenser; the plates were placed on a plate shaker (600 rpm) for 2 minutes, then centrifuged briefly and placed back in the 37° C. incubator for 30 minutes. […]
As to `Cn1cc([C@@H]2C[C@]3(CCN2)OCCc2cc(Cl)sc23)nn1` (single isomer, unassigned) [Compound 2], the IC50 lay in the range of 100 to 500 nM.
As for `Cc1cc([C@@H]2C[C@]3(CCN2)OCCc2cc(Cl)sc23)no1` (single isomer, unassigned) [Compound 23], the IC50 lay within 100 to 500 nM.
As for `Cn1cc([C@@H]2C[C@]3(CCN2)OCCc2cc(Cl)sc23)cn1` (single isomer, unassigned) [Compound 24], the figure is < 100 nM; as for `Cc1cc([C@@H]2C[C@]3(CCN2)OCCc2cc(Cl)sc23)on1` (single isomer, unassigned) [Compound 25], 100 to 500 nM.
As for `CCc1cc2c(s1)CCOC21CCNC(C2CC2)C1` (single isomer, unassigned) [Compound 29, 2′-cyclopropyl-2-ethyl-spiro[6,7-dihydrothieno[3,2-c]pyran-4,4′-piperidine]], the figure is 500 to 1000 nM; as for `Cn1cc([C@@H]2C[C@]3(CCN2)OCCc2cc(C4CC4)sc23)nn1` (single isomer, unassigned) [Compound 31], 100 to 500 nM.
To `Cc1cc2c(s1)C1(CCN[C@H](c3cn(C)nn3)C1)OCC2` (single isomer, unassigned) [Compound 32] belongs 100 to 500 nM.
For `Cn1cc([C@@H]2C[C@]3(CCN2)OCC(C)(O)c2cc(Cl)sc23)nn1` (single isomer, unassigned) [Compound 37], the IC50 was 500 to 1000 nM.
Regarding `Cn1cc([C@@H]2C[C@]3(CCN2)OCC(C)(O)c2cc(Cl)sc23)nn1` (single isomer, unassigned) [Compound 38], the IC50 was 100 to 500 nM.
For `Cn1cc([C@@H]2C[C@]3(CCN2)OCC(O)(C(F)F)c2cc(Cl)sc23)nn1` (single isomer, unassigned) [Compound 39], the IC50 is 500 to 1000 nM.
For the molecule `Cn1cc([C@@H]2C[C@]3(CCN2)OCC(O)(C(F)F)c2cc(Cl)sc23)nn1` (single isomer, unassigned) [Compound 40], the IC50 was < 100 nM.
In the case of `COC1CO[C@]2(CCN[C@H](c3cn(C)nn3)C2)c2sc(Cl)cc21` (single isomer, unassigned) [Compound 42], the IC50 was 500 to 1000 nM.
To `Cn1cc(C2CC3(CCN2)OCC(O)c2cc(Br)sc23)nn1` (single isomer, unassigned) [Compound 44, 2-bromo-2′-(1-methyltriazol-4-yl)spiro[4,5-dihydrothieno[2,3-c]pyran-7,4′-piperidine]-4-ol] belongs 500 to 1000 nM; to `Cn1cc(C2CC3(CCN2)OCC(O)c2cc(Br)sc23)nn1` (single isomer, unassigned) [Compound 45, 2-bromo-2′-(1-methyltriazol-4-yl)spiro[4,5-dihydrothieno[2,3-c]pyran-7,4′-piperidine]-4-ol], < 100 nM; to `CC(O)c1c(C(F)(F)F)sc2c1CCOC21CCN[C@H](c2cn(C)nn2)C1` (single isomer, unassigned) [Compound 52], 100 to 500 nM.
To `CC(O)c1c(C(F)(F)F)sc2c1CCOC21CCN[C@H](c2cn(C)nn2)C1` (single isomer, unassigned) [Compound 53] belongs < 100 nM; to `CCc1cc2c(s1)CCOC21CCNC(c2ccc(F)cc2)C1` (single isomer, unassigned) [Compound 78, 2-ethyl-2′-(4-fluorophenyl)spiro[6,7-dihydrothieno[3,2-c]pyran-4,4′-piperidine]], 500 to 1000 nM; to `Cc1ncc(C2CC3(CCN2)OCCc2cc(Cl)sc23)cn1` (centres unmarked) [Compound 1, 2-chloro-2′-(2-methylpyrimidin-5-yl)spiro[4,5-dihydrothieno[2,3-c]pyran-7,4′-piperidine]], 100 to 500 nM.
As for `CCc1cc2c(s1)CCOC21CCNC(C2CC2)C1` (centres unmarked) [Compound 3, 2′-cyclopropyl-2-ethyl-spiro[6,7-dihydrothieno[3,2-c]pyran-4,4′-piperidine]], the figure is 100 to 500 nM; as for `CCc1cc2c(s1)C1(CCNC(c3cn(C)nn3)C1)OCC2` (centres unmarked) [Compound 4], 100 to 500 nM; as for `Cn1cc(C2CC3(CCN2)OCCc2cc(C(F)(F)F)sc23)nn1` (centres unmarked) [Compound 5], < 100 nM.
On to `CCc1cc2c(s1)C1(CCNC(c3cc(C)no3)C1)OCC2` (centres unmarked) [Compound 6], for which the IC50 was < 100 nM.
As for `CCc1cc2c(s1)CCOC21CCNC(c2cnn(CCS(C)(=O)=O)c2)C1` (centres unmarked) [Compound 7], the figure is 100 to 500 nM; as for `CCc1cc2c(s1)C(C)COC21CCNC(c2cn(C)nn2)C1` (centres unmarked) [Compound 9], 100 to 500 nM; as for `CCc1cc2c(s1)CCOC21CCNC(c2cn(C)nn2)C1` (centres unmarked) [Compound 10], 100 to 500 nM.
To `Cn1cc(C2CC3(CCN2)OCCc2sc(Cl)cc23)nn1` (centres unmarked) [Compound 11] belongs 500 to 1000 nM; to `Cn1cnc(C2CC3(CCN2)OCCc2cc(Cl)sc23)c1` (centres unmarked) [Compound 12], 500 to 1000 nM.
Turning to `CCc1cc2c(s1)CCOC21CCNC(c2cn[nH]c2)C1` (centres unmarked) [Compound 13], the IC50 was 500 to 1000 nM.
To `OCCn1cc(C2CC3(CCN2)OCCc2cc(Cl)sc23)cn1` (centres unmarked) [Compound 14] belongs 500 to 1000 nM; to `CCc1cc2c(s1)CCOC21CCNC(c2ccnnc2)C1` (centres unmarked) [Compound 15], 500 to 1000 nM; to `CCc1cc2c(s1)CCOC21CCNC(C2(C)COC2)C1` (centres unmarked) [Compound 16], 500 to 1000 nM.
To `Cn1ncc(C2CC3(CCN2)OCCc2cc(Cl)sc23)n1` (centres unmarked) [Compound 17] belongs 500 to 1000 nM; to `CCc1cc2c(s1)CCOC21CCNC(c2cnc(C)nc2)C1` (centres unmarked) [Compound 18], 500 to 1000 nM.
On to `Clc1cc2c(s1)C1(CCNC(C3CC3)C1)OCC2` (centres unmarked) [Compound 19], for which the IC50 fell in the range of 500 to 1000 nM.
As for `Cc1cc2c(s1)CCOC21CCNC(C2CC2)C1` (centres unmarked) [Compound 20], the figure is 500 to 1000 nM.
As for `FC(F)(F)c1cc2c(s1)CCOC21CCNC(C2CC2)C1` (centres unmarked) [Compound 21], the figure is 100 to 500 nM; as for `Cn1cc([C@@H]2C[C@]3(CCN2)OCCc2cc(Br)sc23)nn1` [Compound 22], < 100 nM.
As for `Clc1cc2c(s1)[C@@]1(CCN[C@H](c3cn[nH]c3)C1)OCC2` [Compound 26], the figure is < 100 nM.
`CC1CO[C@]2(CCN[C@H](c3cn(C)nn3)C2)c2cc(Cl)sc21` (some centres unmarked) [Compound 28]: the IC50 was 100 to 500 nM.
To `Cn1cc([C@@H]2CC3(CCN2)OCCc2cc(C4CC4)sc23)nn1` (stereo partly drawn) [Compound 30, (2S)-2′-cyclopropyl-2-(1-methyl-1H-1,2,3-triazol-4-yl)-4′,5′-dihydrospiro[piperidine-4,7′-thieno[2,3-c]pyran]] belongs 500 to 1000 nM; to `Cn1cc([C@@H]2C[C@]3(CCN2)OCCc2cc(I)sc23)nn1` [Compound 33, (2S,4S)-2′-iodo-2-(1-methyl-1H-1,2,3-triazol-4-yl)-4′,5′-dihydrospiro[piperidine-4,7′-thieno[2,3-c]pyran]], < 100 nM.
